The record followed here is a melting point compilation (Tetko et al.; mined from patent text by program, amines drawn as free bases though some values may be those of a salt).

As usually defined, the melting point is the temperature, or range, at which the solid turns liquid. In the case of `O=C(c1ccccc1)C(Cl)Cn1cnc(Cl)c1` (stereo not given), the melting point was in the range of 106 to 110 °C.

`O=C(Nc1ccc(C(=O)O)cc1)OCc1nccn1-c1cc2cc(C(=O)O)c(=O)[nH]c2cc1Cl` came in with a melting point of 249 to 251 °C. As for `CCCCCCCCCCCCCCOc1ccc(N(CC(=O)O)CC(=O)O)cc1OCCCCCCCCCCCCCC`, the figure is 89 to 93 °C; as for `CCN(CC)CCNC(=O)c1cc(Cl)c(N)cc1OCC(=O)OC`, 92 to 94 °C; as for `COc1c(Cl)ccc(-c2cc(N)c(Cl)c(C(=O)N3CC=CCO3)n2)c1F`, 78 to 81 °C. As for `CC=C1c2ccccc2CC(=O)c2ccccc21`, the figure is 93 to 95 °C. For `O=C(O)CN(CCN(CC(=O)O)C(Cc1ccccc1)C(=O)O)CCN(CC(=O)O)C(Cc1ccccc1)C(=O)O` (stereo not given) the value was 111 to 115 °C; for `Cc1cc(=O)c(C(=O)OC2CCCCC2)nn1-c1ccc(Cl)cc1`, 160 to 162 °C; for `Cc1ccc(S(=O)(=O)NC(=O)C2C(=O)CC(C)(C)CC2=O)cc1`, 94 to 108 °C. In turn, `O=c1c(-c2ccccc2)c(CSc2ncnc3[nH]cnc23)oc2ccc(Br)cc12` returned a melting point of 214 to 218 °C. For `Oc1ccc(C2OCCO2)cc1Br`, the melting point lay within 76 to 78 °C. `COc1cc(S(C)=O)c(C)cc1OCC(=O)NCC(O)COc1ccccc1C` (stereo not given) gave a melting point of 106 to 108 °C. The compound `Cc1cccc(NC(=O)CN2c3ccc(Cl)c(Cl)c3[C@@H]3CCN(C(=O)OC(C)(C)C)CC[C@@H]32)c1C` (relative stereo) showed a melting point of 146 °C.

Compound `Oc1ccc(-c2nc3cc(O)cc(-c4ccco4)c3o2)cc1` showed a melting point of 120 to 121 °C. As for `O=c1[nH]c2cc(Cl)ccc2c(O)c1Sc1nc2ccccc2s1`, the figure is greater than 270 °C. With `CC(=O)NC[C@H]1CN(c2ccc(N3CCSC3)c(F)c2)C(=O)O1`, the melting point lay within 103 to 105 °C.

As for `CCCC1=C(C#N)C(c2cccc3ccccc23)c2c[nH]nc2N1` (stereo not given), the melting point stood at 263 °C. For `CCNC(=O)COc1cc2c(c(Cl)c1Cl)C(=O)C(C)(C(C)C)C2` (stereo not given) the value was 146 °C; for `CCc1c2s[nH]c(=O)c2c(=O)n2ccc(Cl)cc12`, 222 to 223 °C; for `Cn1c(=O)c(=O)[nH]c2c3ccccc3ccc21`, 333 °C.

As for `CCN(CC)c1ccc(C2(c3c(C)n(CC)c4ccccc34)OC(=O)c3ccccc32)c(OC(C)C)c1` (stereo not given), the melting point is 193 °C. With `CCOc1ccc(O)cc1C=O`, the melting point was 108 to 109 °C. As for `CCOC(=O)CCCCC(NS(=O)(=O)c1ccc(C)cc1)c1ccc2ccccc2c1` (stereo not given), the figure is 87 to 91 °C; as for `CCN(C(=O)OC)c1cccc(-c2ccc3nnc(C)n3n2)c1`, 176 to 178 °C; as for `Cc1ccc2c(c1)C=Cc1cc(C)ccc1C2c1cn(-c2ccnc(NC(Cc3c[nH]cn3)C(=O)O)n2)c(=O)[nH]c1=O` (stereo not given), 223 °C. As for `CN1Cc2cccc(SCc3ccccc3)c2S1(=O)=O`, the figure is 119 to 122 °C; as for `O=C(Nc1nnn(CC2CC2)n1)C(c1ccccc1)c1ccccc1`, 147 to 148 °C. As for `NC(=O)COC(=O)NCCC[C@H]1OC[C@H](c2ccc(Cl)c3ccccc32)CO1`, the figure is 176 to 178 °C; as for `C=CCn1c(C)c(C)c2cnnc(CCc3ccc(F)cc3F)c21`, 118 to 119 °C. `COC(=O)N1C(=O)[C@H](O)[C@@H]1c1ccccc1` returned a melting point of 91 to 92 °C. For the compound `Cc1oc2ccc(N)cc2c1C`, the melting point fell in the range of 77 to 78 °C. `CCOC(=O)c1c(C(F)(F)F)nc2c(C(F)(F)F)cccc2c1O` registered a melting point of 68 °C. As for `CC(=O)c1cccnc1N(C)C1CCN(Cc2ccccc2)CC1`, the figure is 93 to 94 °C; as for `O=C(CCc1ccccc1)Nc1ccc([N+](=O)[O-])cc1`, 117 to 119 °C.

For `C=Cc1ccc(OCc2ccccc2)cc1OCC(=O)c1ccc(OC)cc1`, the melting point lay within 93 to 94 °C.
